Values after ≈ are worked out from the molar mass of the structure shown. Like-named read-outs stand apart in the source and are kept apart here.
What was measured:
[1] = system: S. aureus NTCC 12973; assay: MIC broth microdilution assay; assay type: cell-based, Staphylococcus aureus; settings: 24 h, read-out: MIC S. aureus (Gram positive)
Procedure: (§1) Antibacterial activity assay […]
(§2) MIC broth microdilution assay
(§3) 3 × 125 mL Erlenmeyer flasks, each filled with 12.5 mL MHBII, were inoculated with three different colonies of S. aureus NTCC 12973. 3 × 125 mL Erlenmeyer flasks, each filled with 12.5 mL BHI broth, were inoculated with three different colonies of E. faecium ATCC 19434. The cultures were incubated at 37 °C with shaking at 180 rpm for 16 h.
(§4) OD600 of ~2.5. The suspensions of S. aureus cultures were diluted 100-fold with MHBII while the E. faecium cultures were diluted 4-fold. The resultant suspensions were incubated for a further 3 h at 37 °C with shaking. […]
(§5) after 3 h. Stock solutions of the title compounds were prepared in the requisite broth from 100 mM stocks in DMSO with the exception of carbenicillin, which was from a 100 mM stock in water and vancomycin from a 10 mM stock in DMSO. 15 × 96 well plates were primed with concentration gradients of the analytes and carbenicillin as shown in Figure S60 for S. aureus. 15 × 96 well plates were primed with the concentration […]
(§6) μL per well of the relevant bacterial culture in the requisite broth to 100 μL per well.
Plates were then incubated at 37 °C for 24 h before reading OD600 on a BMG Clariostar […]
Figure S50: Dose response profiles of the title compounds against S. aureus.
(1 picture or pasted object on this page, not shown here)

[2] = system: Acinetobacter baumanii ATCC 17978; assay: Rapid screen broth microdilution assay; assay type: cell-based, Acinetobacter baumannii; settings: rapid screen without replicates, 24 h, read-out: MIC A. baumannii (Gram negative)
Procedure: (§7) Antibacterial activity assay
(§8) Rapid screen broth microdilution assay
(§9) 5 × 125 mL Erlenmeyer flasks, each filled with 12.5 mL Mueller Hinton broth II (MHBII), were inoculated with Klebsiella pneumoniae ATCC 13883, Acinetobacter baumanii ATCC 17978, Psuedomonas aeruginosa ATCC BAA-47, Staphylococcus aureus […]
(§10) with 12.5 mL BHI broth was inoculated with Enterococcus faecium ATCC 19434. The cultures were incubated at 37 °C with shaking at 180 rpm for 16 h. The suspensions were diluted 100-fold with the requisite broth (E. faecium: 4-fold) and the resultant suspensions incubated for a further 3 h at 37 °C with shaking. […]
(§11) of 0.8–1.2 after 3 h. Stock solutions of the title compounds were prepared in the requisite broth from 100 mM stocks in DMSO with the exceptions of carbenicillin, which was from a 100 mM stock in water and ciprofloxacin from a 10 mM stock in DMSO.
(§12) 6 × 96 well plates were primed with a concentration gradient of the analytes from 200 to 3.13 µM, carbenicillin from 200 to 3.13 µM and ciprofloxacin from 10 to 0.16 µM. The cells were diluted 100-fold to an OD600 of 0.01. All plates were then inoculated with 50 μL per well bacterial culture in the requisite broth to 100 μL per well. Plates were then incubated at 37 °C for 24 h before reading OD600 on a BMG Clariostar platereader. […]

[3] = system: Psuedomonas aeruginosa ATCC BAA-47; assay: Rapid screen broth microdilution assay; assay type: cell-based, Pseudomonas aeruginosa; settings: rapid screen without replicates, 24 h, read-out: MIC P. aeruginosa (Gram negative)
Procedure: as §7, §8, §9, §10, §11, §12

[4] = system: BEASB2, HaCat, RPE1, HCT116 and HeLa cell lines; assay: Cell viability, summary over all cell lines studied; assay type: cell-based, human; settings: summary of Table 3, 48 h; for IC50: read-out: IC50 values, range over all cell lines studied
Procedure: (§13) To determine the relative viability, after incubation cells were fixed and stained with DAPI and the number of nuclei per well determined using a CeligoTM Image Cytometer (Figure S52 to S60). […] page 43: Cell viability studies Compound cytotoxicity was tested simultaneously on five representative cell lines […] All cells were cultured in DMEM Glutamax without pyruvate with 10% fetal bovine serum and 1% penicillin/streptomycin (Gibco). Cells were incubated with the compound for 24 or 48 h […] The tested concentration range for each compound was […] The required […] Greiner CELLSTAR® microplates) using the Echo 550 Acoustic Liquid Handler and wells were back-filled with DMSO when required to keep a final DMSO concentration […] Next, 50 μL of cell solution was added to the compound-containing wells using the Integra® […] Bulk dispenser. Cell solutions were prepared to get 5000 […] cells per well for hTERT RPE-1, and 5000 (24 h)/2500 (48 h) cells per well for BEAS- […] After incubation, cells were fixed with 4% PFA (Merck, […]), permeabilized with […] DAPI (Merck, 10236276001). Viable cells were counted using 377 nm excitation and 447 nm emission filters on the CeligoTM Image Cytometer. The number of nuclei per well was determined using the Direct Cell Count analysis from the CeligoPro Sofware […] All conditions were performed in triplicate. Staurosporine (Cambridge Bioscience, s7600) was used as a positive control and DMSO only as a negative control. The percentage of cell viability was normalized to the DMSO-only control and […] logistic curve with the scipy.optimize.curve_fit function. S43

[5] = system: Klebsiella pneumoniae ATCC 13883; assay: Rapid screen broth microdilution assay; assay type: cell-based; settings: rapid screen without replicates, 24 h, read-out: MIC K. pnuemoniae (Gram negative)
Procedure: as §7, §8, §9, §10, §11, §12

[6] = system: Escherichia coli K12 ATCC 10798; assay: Rapid screen broth microdilution assay; assay type: cell-based; settings: rapid screen without replicates, 24 h, read-out: MIC E. coli (Gram negative)
Procedure: as §7, §8, §9, §10, §11, §12

[7] = system: E. faecium ATCC 19434; assay: MIC broth microdilution assay; assay type: cell-based, Enterococcus faecium; settings: three colonies, 24 h; for MIC: read-out: MIC E. faecium (Gram positive)
Procedure: as §1, §2, §3, §4, §5, §6

[8] = system: HCT116 (colorectal cancer) cells; assay: Cell viability (DAPI nuclei count); assay type: cell-based, human; settings: 48 h
Procedure: as §13

[9] = system: HaCat (non-cancer skin) cells; assay: Cell viability (DAPI nuclei count); assay type: cell-based, human; settings: 48 h
Procedure: as §13

[10] = system: RPE1 (retinal pigment epithelial cells); assay: Cell viability (DAPI nuclei count); assay type: cell-based, human; settings: 48 h
Procedure: as §13

[11] = system: BEAS2B (non-cancer lung) cells; assay: Cell viability (DAPI nuclei count); assay type: cell-based, human; settings: 48 h
Procedure: as §13

[12] = system: HeLa (cervical cancer) cells; assay: Cell viability (DAPI nuclei count); assay type: cell-based, human; settings: 48 h
Procedure: as §13

[13] = target: T1, avidin (Gallus gallus, UniProt P02701); assay: HABA/avidin assay; assay type: binding; settings: titration of HABA/avidin mixture, absorbance at 500 nm
T1 construct: purchased SIGMA-ALDRICH A9275
T1 sequence (P02701 25-152): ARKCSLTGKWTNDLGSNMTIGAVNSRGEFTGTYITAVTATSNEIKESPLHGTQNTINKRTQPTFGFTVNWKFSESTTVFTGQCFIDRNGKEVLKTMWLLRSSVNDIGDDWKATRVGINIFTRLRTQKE
Procedure: properties towards avidin using the HABA assay.[8] A mixture of avidin (6.8 μM, SIGMA-ALDRICH: A9275) and 4'-hydroxyazobenzene-2-carboxylic acid (HABA, 0.3 mM, SIGMA-ALDRICH: H5126) was dissolved in 50 mM sodium phosphate buffer (20 mL, pH 7.4) and allowed to equilibrate for 24 h at 4 °C. Stock solutions of each compound were prepared in dimethyl sulfoxide at a concentration of 1.1 mM. The […]
to the prepared avidin/HABA mixture (1 mL) at room temperature at 5–10 min intervals […]
absorbance then recorded with an Agilent 8453 UV/Vis spectrometer. The formation of the adduct was indicated by a decrease in the absorbance at 500 nm due to the displacement of HABA from the avidin. By plotting -ΔA500 nm vs. the molar concentration ratio c(compound):c(avidin), the binding stoichiometry of the compound to avidin was determined.

[14] = LogP by shake-flask method (n-octanol/phosphate buffer)
Procedure: using the "shake-flask" method.[6],[7] In short, phosphate buffer (50 mM, pH 7.4) was saturated with n-octanol by shaking a 1:1 mixture of both solution on a laboratory shaker for 72 h, after which the phases were separated. Stock solutions of each complex were then prepared in dimethylsulfoxide at a concentration of 10 mM. […]
solution with a concentration of 100 µM. From this solution, 1000 µL were transferred into an Eppendorf tube and mixed with 1000 µL of n-octanol. After shaking for 15 min and centrifugation (5 min, 6000 rpm), the two phases were carefully separated, and the contact layer discarded. Then, the absorbance of each phase was recorded with an Agilent 8453 UV/Vis spectrometer.
2 mL solution with a concentration of 100 µM. From this solution, 1000 µL were transferred into an Eppendorf tube and mixed with 1000 µL phosphate buffer. After shaking for 15 min and centrifugation (5 min, 6000 rpm), the phases were carefully separated, and the contact layer discarded. Then, the absorbance of each phase was recorded with an Agilent 8453 UV/Vis spectrometer.

Compound | MIC ([1]; three colonies) [µM] | MIC [2] [µM] | MIC [3] [µM] | IC50 [4] [µM] | MIC [5] [µM] | MIC [6] [µM] | MIC E. faecium (Gram positive) [7] [µM] | IC50 [8] [µM] | IC50 [9] [µM] | IC50 [10] [µM] | IC50 [11] [nM] | IC50 [12] [µM] | avidin binding in HABA assay (result in words) [13] | LogP ([14]; pH 7.4) | further results
[Au(triazolatoC6H5,biotin)(PPh3)] [Compound 12] | 1.25 | 50 | >200 | 2 to 8 | >200 | >200 | 0.625 to 2.5 | 7.2 | 6.6 | 3.6 | 2700 | 3.8 |  |  | 
COC(=O)c1n[n]([Ir+][c]2ccccc2-c2ccccn2)nc1C(=O)OC.F[P-](F)(F)(F)(F)F.c1ccc(-c2cccc(-c3ccccn3)n2)nc1 [Compound 17] | >200 | >200 | >200 | > 35 | >200 | >200 |  | > 50 | > 50 | 35 |  | > 50 | non-specific protein binding | -1.02 | MIC [7]: >200 µM
CC(=O)c1n[n]([Au][PH](c2ccccc2)(c2ccccc2)c2ccccc2)nc1-c1ccccc1 [Compound 11, [Au(triazolatoC6H5,COCH3)(PPh3)]] | 2.5 | 100 | >200 | 2 to 8 | >200 | >200 | 0.625 to 5 | 5.5 | 6.1 | 2.7 | 2500 | 3.5 | non-specific protein binding | highly lipophilic^a | 
COC(=O)c1n[n]([Pt][c]2c(-c3ccccn3)cccc2-c2ccccn2)nc1C(=O)OC [Compound 13] | 200 | >200 | >200 |  | >200 | >200 |  | > 50 | > 50 | > 50 |  | > 50 | non-specific protein binding | highly lipophilic^a | IC50 values, range over all cell lines studied [4]: did not show any biological activity; MIC [7]: >200 µM
CC1(C)S[C@@H]2[C@H](NC(=O)C(C(=O)O)c3ccccc3)C(=O)N2[C@H]1C(=O)O (stereo partly drawn) [Carbenicillin, reference compound] |  |  |  |  |  |  |  |  |  |  |  |  |  |  | MIC ([1]; Staphylococcus aureus, NTCC12973, three colonies): 12.5 µM (≈ 4.73 µg/mL); MIC ([6]; Escherichia coli, ATCC10798): 12.5 µM (≈ 4.73 µg/mL)
O=C(O)c1cn(C2CC2)c2cc(N3CCNCC3)c(F)cc2c1=O [Ciprofloxacin, reference compound] |  |  |  |  |  |  |  |  |  |  |  |  |  |  | MIC ([2]; Acinetobacter baumannii, ATCC17978): 0.31 µM (≈ 0.103 µg/mL); MIC ([3]; Pseudomonas aeruginosa, ATCCBAA47): 100 µM (≈ 33.1 µg/mL); MIC ([5]; Klebsiella pneumoniae, ATCC13883): < 0.16 µM
O=C1N[C@H]2[C@H](CS[C@H]2CCCCC(=O)c2n[n]([Pt][c]3c(-c4ccccn4)cccc3-c3ccccn3)nc2-c2ccccc2)N1 [Compound 14, [Pt(triazolatoC6H5,biotin)(dpb)]] | 12.5 | >200 | >200 |  | >200 | >200 | 5 to 10 | 9.4 | 10.2 | 7.4 | 6700 | 8.2 |  |  | LogP ([14]; shake-flask method, n-octanol/phosphate buffer 50 mM pH 7.4): highly lipophilic^a

Source: article PMC7616682 (Journal of biological inorganic chemistry : JBIC : a …, 2024)
